# Source: US20230147962A1, “FIBROBLAST ACTIVATION PROTEIN LIGANDS FOR TARGETED DELIVERY APPLICATIONS” (PHILOCHEM AG, priority 2020, published 2023)
# Read-outs that look alike come from different tables or passages of the source. *1 amine or outer side, *2 acyl side, *3 side chain or, on linkers, in order; H or OH if unused. Where a SMILES comes first, the peptide text is derived from it. The star is where a group is joined. Fluorescein(5-Mal) = O=C1OC2(c3ccc(O)cc3Oc3cc(O)ccc32)c2ccc(N3C(=O)CC(*)C3=O)cc21; X2 = N#C[C@@H]1CC(F)(F)CN1C(=O)CNC(=O)c1ccnc2ccc(OCCCN3CCN(*)CC3)cc12; Suc = O=C(CCC(=O)[*:2])[*:1]
# Assays:
# hFAP [1] = target: T1, hFAP (Homo sapiens, UniProt Q12884); test: In vitro human FAP enzyme IC50 assay (Z-Gly-Pro-AMC substrate); assay type: biochemical; conditions: for hFAP inhibition (in words): FIG. 17, serial dilution from 10^−6 to 10^−11 M; for IC50: 20 nM human FAP, 20 μM substrate, read-out: IC50 hFAP inhibition
# T1 construct: made in house; host or cells: CHO cells, transient gene expression, purified from supernatant
# T1 sequence (Q12884 with tags, fused parts or gaps): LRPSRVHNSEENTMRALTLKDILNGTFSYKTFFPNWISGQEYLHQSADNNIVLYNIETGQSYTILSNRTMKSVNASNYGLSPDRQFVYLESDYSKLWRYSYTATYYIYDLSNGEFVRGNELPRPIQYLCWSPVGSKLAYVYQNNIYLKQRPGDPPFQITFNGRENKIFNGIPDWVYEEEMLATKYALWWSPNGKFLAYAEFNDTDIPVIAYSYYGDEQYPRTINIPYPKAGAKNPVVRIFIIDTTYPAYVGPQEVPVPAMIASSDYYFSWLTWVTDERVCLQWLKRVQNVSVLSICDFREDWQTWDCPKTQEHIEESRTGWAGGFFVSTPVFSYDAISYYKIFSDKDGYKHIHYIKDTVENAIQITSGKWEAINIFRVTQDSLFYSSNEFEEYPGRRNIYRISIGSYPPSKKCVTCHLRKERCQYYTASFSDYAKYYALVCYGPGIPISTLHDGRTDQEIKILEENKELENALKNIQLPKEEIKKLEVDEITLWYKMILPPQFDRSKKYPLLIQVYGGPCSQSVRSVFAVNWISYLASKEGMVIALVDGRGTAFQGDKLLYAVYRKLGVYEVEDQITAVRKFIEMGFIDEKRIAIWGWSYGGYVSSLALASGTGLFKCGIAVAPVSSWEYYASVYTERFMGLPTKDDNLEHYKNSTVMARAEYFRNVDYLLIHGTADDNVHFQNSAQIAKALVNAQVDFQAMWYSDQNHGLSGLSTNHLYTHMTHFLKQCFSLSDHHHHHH
# Procedure: (§1) Enzymatic activity of human FAP on the Z-Gly-Pro-AMC substrate was measured at room temperature on a microtiter plate reader, monitoring the fluorescence at an excitation wavelength of 360 nm and an emission wavelength of 465 nm. The reaction mixture contained 20 μM substrate, 20 nM human FAP, assay buffer (50 mM Tris, 100 mM NaCl, 1 mM EDTA, pH=7.4) and inhibitor (ranging between 10^−6 and 10^−11 M) in a total volume of 30 μL.
# Inhibitor stock solutions (200 mM) were prepared in DMSO. Immediately prior to the commencement of the experiment, the stocks were further diluted to 10^−6 M in the assay buffer, from which 1:2 serial dilutions were prepared. All measurements were done in triplicate.
# The reaction mixture contained 20 μM substrate, 20 nM human FAP (constant), assay buffer (50 mM Tris, 100 mM NaCl, 1 mM EDTA, pH=7.4) and inhibitor (serial dilution from 10^−6 to 10^−11 M, 1:2) in a total volume of 20 μL.
# as §1, with “human FAP (constant),” for “human FAP,”, “and tested compound (serial dilution from” for “and inhibitor (ranging between”, “10^−6 to” for “10^−6 and”, “10^−11 M, 1:2)” for “10^−11 M)”, “of 20” for “of 30”
# hFAP [2] = target: T1, hFAP; test: Dissociation rate measurement by fluorescence polarization; assay type: binding; conditions: 2.0 nM binder, 1.0 μM human FAP, 37° C., 20 μM fluorescein-free competitor
# Procedure: Fluorescence polarization measurements to determine the koff values were performed in 384-well plates (non-binding, ps, f-bottom, black, high volume, 30 μL final volume). The measurements were carried out after pre-incubation of 2.0 nM fluorescein-labelled binders with human FAP at a constant concentration of 1.0 μM at 37° C. in the dark. The dissociation of the fluorescein-labeled compound was induced by adding a large excess of the corresponding fluorescein-free binders (compound P3 obtained in Step 3 of Example 2 and compound H6 obtained in Step 6 of Comparative Example 1, respectively, each at 20 μM final concentration).
# hFAP [3] = target: T1, hFAP; test: Chromatographic co-elution (PD-10) of ligand-protein complexes, hFAP; assay type: binding; conditions: PD-10 column, hFAP 2 μM
# Procedure: A PD-10 column was pre-equilibrated with assay buffer (50 mM Tris, 100 mM NaCl, 1 mM EDTA, pH=7.4) prior to the loading of the complex. Human FAP (2 μM) and fluorescein-labeled binders (6 μM) were incubated for 30 min at 37° C. in the dark. The mixture was loaded and the column was flushed using the assay buffer. The flow through was collected in 96-well plates and the fluorescence was measured immediately on a TECAN microtiter plate reader, monitoring the fluorescence at an excitation wavelength of 485 nm and an emission wavelength of 535 nm. The protein quantities were estimated by measuring the absorbance at 280 nm using a Nanodrop 2000/2000c spectrophotometer.
# A PD-10 column was pre-equilibrated with assay buffer (50 mM Tris, 100 mM NaCl, 1 mM EDTA, pH=7.4) prior to the loading of the complex. A mixture of different proteins (hFAP=2 μM, mFAP=5 μM) and conjugate 15 (100 nM) were incubated and loaded on the column. The mixture was flushed using the assay buffer. The flow through was collected in 96-well plates and the fluorescence intensity was measured immediately on a TECAN microtiter plate reader, monitoring the fluorescence at an excitation wavelength of 485 nm and an emission wavelength of 535 nm. The concentration of the proteins was estimated by measuring the absorbance at 280 nm using a Nanodrop 2000/2000c spectrophotometer.
# hFAP [4] = target: T1, hFAP; test: Affinity measurement to human FAP by fluorescence polarization; assay type: binding; conditions: binder 10 nM, read-out: KD to hFAP
# Procedure: Fluorescence polarization measurements were performed in 384-well plates (non-binding, ps, f-bottom, black, high volume, 30 μL final volume). A stock solution of human FAP (4 μM) was serially diluted with buffer (50 mM Tris, 100 mM NaCl, 1 mM EDTA, pH=7.4), while the final concentration of the binders was kept constant at 10 nM. The measurements were carried out after incubating for 30 min at 37° C. in the dark by fluorescent polarization (FIG. 4).
# (§2) Fluorescence polarization experiments were performed in 384-well plates (non-binding, ps, f-bottom, black, high volume, 30 μL final volume). Stock solutions of human FAP (4 μM) and murine FAP (5 μM) were serially diluted with buffer (50 mM Tris, 100 mM NaCl, 1 mM EDTA, pH=7.4), while the final concentration of the binders was kept constant at 10 nM. The fluorescence anisotropy was measured on a TECAN microtiter plate reader. Experiments were performed in triplicate and the mean anisotropy values fitted using Prism 7.
# murine FAP = target: T2, murine FAP (Mus musculus, UniProt P97321); test: Affinity measurement to murine FAP by fluorescence polarization; assay type: binding; conditions: binder 10 nM, read-out: KD to mFAP
# T2 sequence (P97321 1-761): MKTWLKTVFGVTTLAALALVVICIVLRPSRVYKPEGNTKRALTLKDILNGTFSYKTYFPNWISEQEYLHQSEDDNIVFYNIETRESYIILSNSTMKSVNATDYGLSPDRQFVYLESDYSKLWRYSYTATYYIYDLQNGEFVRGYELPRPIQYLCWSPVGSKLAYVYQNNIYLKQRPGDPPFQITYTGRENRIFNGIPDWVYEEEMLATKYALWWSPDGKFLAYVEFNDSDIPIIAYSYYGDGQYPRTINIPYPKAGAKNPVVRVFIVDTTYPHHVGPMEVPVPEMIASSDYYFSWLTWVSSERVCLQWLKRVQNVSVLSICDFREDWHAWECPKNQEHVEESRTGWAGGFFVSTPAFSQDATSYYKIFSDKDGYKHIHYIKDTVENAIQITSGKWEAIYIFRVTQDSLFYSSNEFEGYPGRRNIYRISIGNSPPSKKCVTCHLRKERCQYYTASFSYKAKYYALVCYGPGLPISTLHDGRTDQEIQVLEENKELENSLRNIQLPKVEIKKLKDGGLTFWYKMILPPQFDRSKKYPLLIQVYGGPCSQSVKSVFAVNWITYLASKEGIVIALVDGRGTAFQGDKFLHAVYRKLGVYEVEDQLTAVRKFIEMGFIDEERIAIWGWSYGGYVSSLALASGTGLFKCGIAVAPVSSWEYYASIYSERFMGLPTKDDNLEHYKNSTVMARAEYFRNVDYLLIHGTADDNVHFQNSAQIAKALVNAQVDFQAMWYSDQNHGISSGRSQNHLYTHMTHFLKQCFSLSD
# Procedure: as §2
# [5] = FIG. 5, 30 min preincubation at 37° C.
compound,measurement,setting,value
"COc1ccc2nccc(C(=O)NCC(=O)N3CCC[C@H]3C#N)c2c1 [Conjugate 28, (S)-N-(2-(2-cyanopyrrolidin-1-yl)-2-oxoethyl)-6-methoxyquinoline-4-carboxamide]",hFAP inhibition (in words),hFAP [1],"lower FAP inhibition property compared with Example 2, P4"
"C[C@H](NC(=O)c1ccnc(CNC(=O)CCC(=O)O)c1)C(=O)N1CC(F)(F)C[C@H]1C#N [Conjugate 29, 4-(((4-(((S)-1-((S)-2-cyano-4,4-difluoropyrrolidin-1-yl)-1-oxopropan-2-yl)carbamoyl)pyridin-2-yl)methyl)amino)-4-oxobutanoic acid]",hFAP inhibition (in words),hFAP [1],does not inhibit FAP proteolytic activity at the concentrations tested in the assay
"N#C[C@@H]1CC(F)(F)CN1C(=O)CNC(=O)c1ccnc2ccc(OCCCN3CCNCC3)cc12 [Conjugate H6, (S)—N-(2-(2-cyano-4,4-difluoropyrrolidin-1-yl)-2-oxoethyl)-6-(3-(piperazin-1-yl)propoxy)quinoline-4-carboxamide]",IC50,hFAP [1]; [5],24.6 nM
"N#C[C@@H]1CC(F)(F)CN1C(=O)CNC(=O)c1ccnc2c(N)cccc12 [Conjugate P3, (S)-8-amino-N-(2-(2-cyano-4,4-difluoropyrrolidin-1-yl)-2-oxoethyl)quinoline-4-carboxamide]",IC50,hFAP [1]; [5],20.2 nM
"N#C[C@@H]1CC(F)(F)CN1C(=O)CNC(=O)c1ccnc2c(NC(=O)CCC(=O)O)cccc12 [Conjugate P4, (S)-4-((4-((2-(2-cyano-4,4-difluoropyrrolidin-1-yl)-2-oxoethyl)carbamoyl)quinolin-8-yl)amino)-4-oxobutanoic acid]",IC50,"hFAP [1]; FIG. 9, total volume 20 μL",16.8 nM
N#C[C@@H]1CC(F)(F)CN1C(=O)CNC(=O)c1ccnc2c(N)cccc12 [ESV6 ligand],IC50,hFAP [1]; [5],20.2 nM
"N#C[C@@H]1CC(F)(F)CN1C(=O)CNC(=O)c1ccnc2c(NC(=O)CCC(=O)NCCOCCOCCNC(=S)Nc3ccc4c(c3)C(=O)OC43c4ccc(O)cc4Oc4cc(O)ccc43)cccc12 [ESV6-fluo, (S)—N1-(4-((2-(2-cyano-4,4-difluoropyrrolidin-1-yl)-2-oxoethyl)carbamoyl)quinolin-8-yl)-N4-(2-(2-(2-(3-(3′,6′-dihydroxy-3-oxo-3H-spiro[isobenzofuran-1,9′-xanthen]-5-yl)thioureido)ethoxy)ethoxy)ethyl)succinamide]","dissociation from hFAP, regression coefficient",hFAP [2],−0.09356
same,complex formation with hFAP in PD-10 co-elution,hFAP [3],stable complex is formed
same,Kd,hFAP [4],0.78 nM
N#C[C@@H]1CC(F)(F)CN1C(=O)CNC(=O)c1ccnc2ccc(OCCCN3CCNCC3)cc12 [Haberkorn ligand],IC50,hFAP [1]; [5],24.6 nM
"N#C[C@@H]1CC(F)(F)CN1C(=O)CNC(=O)c1ccnc2ccc(OCCCN3CCN(C(=O)c4ccc5c(c4)C(=O)OC54c5ccc(O)cc5Oc5cc(O)ccc54)CC3)cc12 [Haberkorn-fluo, (S)—N-(2-(2-cyano-4,4-difluoropyrrolidin-1-yl)-2-oxoethyl)-6-(3-(4-(3′,6′-dihydroxy-3-oxo-3H-spiro[isobenzofuran-1,9′-xanthene]-5-carbonyl)piperazin-1-yl)propoxy)quinoline-4-carboxamide, reference compound]","dissociation from hFAP, regression coefficient",hFAP [2],−0.07511
same,complex formation with hFAP in PD-10 co-elution,hFAP [3],stable complex is formed
same,Kd,hFAP [4],0.89 nM
"N#C[C@@H]1CC(F)(F)CN1C(=O)CNC(=O)c1ccnc2cc(Nc3ccccc3)ccc12 [compound 24, (S)-N-(2-(2-cyano-4,4-difluoropyrrolidin-1-yl)-2-oxoethyl)-7-(phenylamino)quinoline-4-carboxamide]",IC50,"hFAP [1]; FIG. 9, total volume 20 μL",33.5 nM
"N#C[C@@H]1CC(F)(F)CN1C(=O)CNC(=O)c1ccnc2ccc(OCCCN3CCN(C(=O)CCC(=O)N[C@@H](CC(=O)O)C(=O)N[C@@H](CCCCN)C(=O)N[C@@H](CC(=O)O)C(=O)N[C@@H](CSC4CC(=O)N(c5ccc6c(c5)C(=O)OC65c6ccc(O)cc6Oc6cc(O)ccc65)C4=O)C(=O)O)CC3)cc12 (stereo partly shown) [conjugate 25, reference compound] ({X2-Suc}-DKDC(Fluorescein(5-Mal))-OH)",Kd,murine FAP,30.9 nM
same,Kd,hFAP [4],1.02 nM
